Source: patent publication US11584756B2, “Heterocyclic compounds as BET inhibitors” (NUVATION BIO INC., priority 2019, dated 2023)

Tests used:
[1] = target: BRD4-2 (Homo sapiens (Human), UniProt O60885); assay: Bromodomain and Extraterminal Domain (BET) binding assay, BRD4-2; conditions: histone H4 peptide (1-21) K5/8/12/16Ac-biotin ligand; 130 nM protein, 70 nM ligand
Method: (§1) The bromodomain binding assays were performed by Reaction Biology Corp., Malvern, Pa., USA (www.reactionbiology.com). The BET binding assays were conducted in 384 well microplates in assay buffer (50 mM HEPES-HCl, pH 7.5, 100 mM NaCl, 1 mg/ml BSA, 0.05% CHAPS, and 0.5% DMSO) with compounds added as DMSO stocks at a single concentration or with 10-point dose response titrations. BET protein or assay buffer were delivered to the appropriate wells of the microplate. Test compound was then delivered by acoustic technology via a Labcyte Echo550 liquid handler. The microplate was centrifuged for 5 min and pre-incubated for 30 min at RT with gentle shaking. The ligand (histone H4 peptide (1-21) K5/8/12/16Ac-biotin) was delivered and the microplate was again centrifuged for 5 min and allowed to incubate for 30 min at RT with gentle shaking. Donor beads were then added in the absence of light and the microplate was centrifuged and gently shaken. After 5 min, acceptor beads were added in the absence of light and the microplate was centrifuged and gently shaken in the dark for 60 min. The microplate was read using a Perkin Elmer EnSpire Alpha plate reader (λ Ex/λ Em=680/520-620 nm). Percent inhibition was calculated relative to positive and negative controls on a per plate basis. For titration experiments, IC50 values were determined by fitting the percent inhibition versus compound concentration.

[2] = target: BRD4-1 (Homo sapiens (Human), UniProt O60885); assay: Bromodomain and Extraterminal Domain (BET) binding assay, BRD4-1; conditions: histone H4 peptide (1-21) K5/8/12/16Ac-biotin ligand; 20 nM protein, 20 nM ligand
Method: as §1

[3] = test system: MV-4-11 human acute myeloid leukemia cell line; assay: Cell viability assay in MV-4-11 cells (Cell Titer-Glo); type: cell-based; conditions: MV4-11, 72 hrs incubation
Method: The effects of test compounds were studied in a cell viability assay in the MV-4-11 human acute myeloid leukemia cell line. The cells were harvested during the logarithmic growth period and counted. Cells were seeded at a count of 15000 cells per well/100 μl. After seeding, cells were incubated at 37° C. 5% CO2 for 1 hr. Cells were treated with test compounds at 8 concentrations within a desired concentration range (e.g. 5 nM-10 μM) for generation of dose response curves by preparing serial dilutions of the test compound in DMSO which were further diluted with culture medium and then added to each well. The plate was further incubated for another 72 hrs in a humidified incubator at 37° C. and 5% CO2. The assay was terminated by addition of Cell Titer-Glo reagent (Promega, Madison, Wis.) at ¼ the volume of total medium per well. Contents were mixed, the plate was incubated for 10 min at room temperature and luminescence was measured. Cell viability data were plotted using GraphPad Prism (GraphPad Software, Inc., San Diego, Calif.). In addition, a nonlinear regression model with a sigmoidal dose response and variable slope within GraphPad Prism was used to calculate the IC50 value of individual test compounds.

| IC50 [1] [µM] | IC50 [2] [µM] | IC50 [3] [µM] | SMILES |
| --- | --- | --- | --- |
| 0.0198 | 2.5 | 0.47 | Cc1cc(F)cc(C)c1Oc1ccc(C(C)(C)O)cc1-c1cn(C)c(=O)c2ccsc12 [Compound 2.1, 7-(2-(4-fluoro-2,6-dimethylphenoxy)-5-(2-hydroxypropan-2-yl)phenyl)-5-methylthieno[3,2-c]pyridin-4(5H)-one] |
| 0.0285 | 0.118 | 0.163 | Cn1cc(-c2cc(C(C)(C)O)ccc2Oc2ccc(F)cc2F)c2sccc2c1=O [Compound 2.3, 7-(2-(2,4-difluorophenoxy)-5-(2-hydroxypropan-2-yl)phenyl)-5-methylthieno[3,2-c]pyridin-4(5H)-one] |
| 0.0073 | 0.015 | – | CCS(=O)(=O)Nc1ccc(Oc2ccc(F)cc2F)c(-c2cn(C)c(=O)c3ccsc23)c1 [Compound 2.91, N-(4-(2,4-difluorophenoxy)-3-(5-methyl-4-oxo-4,5-dihydrothieno [3,2-c]pyridin-7-yl)phenyl)ethanesulfonamide] |
| 0.018 | 0.744 | 0.597 | Cn1cc(-c2cc(C(C)(C)O)ccc2Oc2ccc(F)cc2F)c2cc(C(=O)NCC(F)(F)F)sc2c1=O [Compound 5, 4-(2-(2,4-difluorophenoxy)-5-(2-hydroxypropan-2-yl)phenyl)-6-methyl-7-oxo-N-(2,2,2-trifluoroethyl)-6,7-dihydrothieno[2,3-c]pyridine-2-carboxamide] |
| 0.032 | 1.49 | 1.79 | Cn1cc(-c2cc(C(C)(C)O)ccc2Oc2ccc(F)cc2F)c2cc(C(=O)N3CCCCC3)sc2c1=O [Compound 6, 4-(2-(2,4-difluorophenoxy)-5-(2-hydroxypropan-2-yl)phenyl)-6-methyl-2-(piperidine-1-carbonyl)thieno[2,3-c]pyridin-7(6H)-one] |
| 0.497 | – | 2.48 | Cn1cc(-c2cc(C(C)(C)O)ccc2Oc2ccc(F)cc2F)c2cc(CN3CCCCC3)sc2c1=O [Compound 7, 4-(2-(2,4-difluorophenoxy)-5-(2-hydroxypropan-2-yl)phenyl)-6-methyl-2-(piperidin-1-ylmethyl)thieno[2,3-c]pyridin-7(6H)-one] |
| 0.0125 | 0.017 | 0.074 | Cc1nnc(-c2cc3c(-c4cc(C(C)(C)O)ccc4Oc4ccc(F)cc4F)cn(C)c(=O)c3s2)o1 [Compound 12, 4-(2-(2,4-difluorophenoxy)-5-(2-hydroxypropan-2-yl)phenyl)-6-methyl-2-(5-methyl-1,3,4-oxadiazol-2-yl)thieno[2,3-c]pyridin-7(6H)-one] |
| 0.047 | 1.17 | 0.768 | Cn1cc(-c2cc(C(C)(C)O)ccc2Oc2ccc(F)cc2F)c2cc(C(=O)NC3(C(F)(F)F)CC3)sc2c1=O [Compound 14, 4-(2-(2,4-difluorophenoxy)-5-(2-hydroxypropan-2-yl)phenyl)-6-methyl-7-oxo-N-(1-(trifluoromethyl)cyclopropyl)-6,7-dihydrothieno[2,3-c]pyridine-2-carboxamide] |
| 0.011 | 0.638 | 1.41 | Cn1cc(-c2cc(C(C)(C)O)ccc2Oc2ccc(F)cc2F)c2cc(C(=O)N3CCC(F)(F)CC3)sc2c1=O [Compound 22, 4-(2-(2,4-difluorophenoxy)-5-(2-hydroxypropan-2-yl)phenyl)-2-(4,4-difluoropiperidine-1-carbonyl)-6-methylthieno[2,3-c]pyridin-7(6H)-one] |
| 0.017 | 0.265 | 0.879 | Cn1cc(-c2cc(C(C)(C)O)ccc2Oc2ccc(F)cc2F)c2cc(C(=O)N3CCC(F)(F)C3)sc2c1=O [Compound 76, 4-(2-(2,4-difluorophenoxy)-5-(2-hydroxypropan-2-yl)phenyl)-2-(3,3-difluoropyrrolidin-1-carbonyl)-6-methylthieno[2,3-c]pyridin-7(6H)-one] |
| 0.103 | > 10 | 1.28 | C=C(C)c1ccc(Oc2c(C)cc(F)cc2C)c(-c2cn(C)c(=O)c3sc(C(=O)NCC)cc23)c1 [Compound 148, N-ethyl-4-(2-(4-fluoro-2,6-dimethylphenoxy)-5-(prop-1-en-2-yl)phenyl)-6-methyl-7-oxo-6,7-dihydrothieno[2,3-c]pyridine-2-carboxamide] |
| 0.103 | > 10 | 1.5 | Cc1cc(F)cc(C)c1Oc1ccc(C(C)(C)O)cc1-c1cn(C)c(=O)c2sc(C(=O)NCc3ccccc3)cc12 [Compound 149, N-benzyl-4-(2-(4-fluoro-2,6-dimethylphenoxy)-5-(2-hydroxypropan-2-yl)phenyl)-6-methyl-7-oxo-6,7-dihydrothieno[2,3-c]pyridine-2-carboxamide] |
| 0.0012 | 3.6 | 0.193 | CNC(=O)c1cc2c(-c3cc(C(C)(C)O)ccc3Oc3c(C)cc(F)cc3C)cn(C)c(=O)c2s1 [Compound 150, 4-(2-(4-fluoro-2,6-dimethylphenoxy)-5-(2-hydroxypropan-2-yl)phenyl)-N,6-dimethyl-7-oxo-6,7-dihydrothieno[2,3-c]pyridine-2-carboxamide] |
| 0.0032 | 9.38 | 0.282 | Cc1cc(F)cc(C)c1Oc1ccc(C(C)(C)O)cc1-c1cn(C)c(=O)c2sc(C(=O)Nc3ccccc3)cc12 [Compound 151, 4-(2-(4-fluoro-2,6-dimethylphenoxy)-5-(2-hydroxypropan-2-yl)phenyl)-6-methyl-7-oxo-N-phenyl-6,7-dihydrothieno[2,3-c]pyridine-2-carboxamide] |
| 0.009 | 1.49 | 0.536 | Cc1nnc(-c2cc3c(-c4cc(C(C)(C)O)ccc4Oc4c(C)cc(F)cc4C)cn(C)c(=O)c3s2)[nH]1 [Compound 152, 4-(2-(4-fluoro-2,6-dimethylphenoxy)-5-(2-hydroxypropan-2-yl)phenyl)-6-methyl-2-(5-methyl-4H-1,2,4-triazol-3-yl)thieno[2,3-c]pyridin-7(6H)-one] |
| 0.526 | > 10 | 3.83 | Cc1cc(F)cc(C)c1Oc1ccc(C(C)(C)O)cc1-c1cn(C)c(=O)c2sc(-c3nc4ccccc4o3)cc12 [Compound 153, 2-(benzo[d]oxazol-2-yl)-4-(2-(4-fluoro-2,6-dimethylphenoxy)-5-(2-hydroxypropan-2-yl)phenyl)-6-methylthieno[2,3-c]pyridin-7(6H)-one] |
| 0.284 | > 10 | 2.89 | Cc1cc(F)cc(C)c1Oc1ccc(C(C)(C)O)cc1-c1cn(C)c(=O)c2sc(-c3nc4ccccc4[nH]3)cc12 [Compound 154, 2-(1H-benzo[d]imidazol-2-yl)-4-(2-(4-fluoro-2,6-dimethylphenoxy)-5-(2-hydroxypropan-2-yl)phenyl)-6-methylthieno[2,3-c]pyridin-7(6H)-one] |
| 4.07 | > 10 | – | CCN(CC)C(=O)c1cc2c(-c3cc(C(C)(C)O)ccc3Oc3c(C)cc(F)cc3C)cn(C)c(=O)c2s1 [Compound 155, N,N-diethyl-4-(2-(4-fluoro-2,6-dimethylphenoxy)-5-(2-hydroxypropan-2-yl)phenyl)-6-methyl-7-oxo-6,7-dihydrothieno[2,3-c]pyridine-2-carboxamide] |
| 0.74 | > 10 | – | C=C(C)c1ccc(Oc2c(C)cc(F)cc2C)c(-c2cn(C)c(=O)c3cc(C(=O)NCC)sc23)c1 [Compound 156, N-ethyl-7-(2-(4-fluoro-2,6-dimethylphenoxy)-5-(prop-1-en-2-yl)phenyl)-5-methyl-4-oxo-4,5-dihydrothieno[3,2-c]pyridine-2-carboxamide] |
| 0.145 | > 10 | 0.55 | CCS(=O)(=O)Nc1ccc(Oc2c(C)cc(F)cc2C)c(-c2cn(C)c(=O)c3sc(-c4nc5ccccc5[nH]4)cc23)c1 [Compound 157, N-(3-(2-(1H-benzo[d]imidazol-2-yl)-6-methyl-7-oxo-6,7-dihydrothieno[2,3-c]pyridin-4-yl)-4-(4-fluoro-2,6-dimethylphenoxy)phenyl)ethane sulfonamide] |
| 0.0017 | 0.018 | – | CCNC(=O)c1cc2c(=O)n(C)cc(-c3cc(C(C)(C)O)ccc3Oc3ccc(F)cc3F)c2s1 [Compound 159, 7-(2-(2,4-difluorophenoxy)-5-(2-hydroxypropan-2-yl)phenyl)-N-ethyl-5-methyl-4-oxo-4,5-dihydrothieno[3,2-c]pyridine-2-carboxamide] |
